Reference: paper PMC4750701, “Role of Mitochondrial RNA Polymerase in the Toxicity of Nucleotide Inhibitors of Hepatitis C Virus” (Antimicrobial Agents and Chemotherapy, 2016)
Like-named read-outs stand apart in the source and are kept apart here. Values belong to the compound of their own block, whether it stands above or below them.

Tests used:
[1] = target: T1, Human DNA polymerase alpha (Homo sapiens, UniProt P09884); experiment: Inhibition of human DNA polymerase alpha; type: biochemical; settings: triphosphate form of the compound tested; read-out: Mean IC50 ± SD for DNA Pol α
T1 construct: isolated from HeLa cell extracts; purchased CHIMERx (Madison, WI); host or cells: HeLa cell extracts (endogenous enzyme)
T1 sequence (P09884 whole entry): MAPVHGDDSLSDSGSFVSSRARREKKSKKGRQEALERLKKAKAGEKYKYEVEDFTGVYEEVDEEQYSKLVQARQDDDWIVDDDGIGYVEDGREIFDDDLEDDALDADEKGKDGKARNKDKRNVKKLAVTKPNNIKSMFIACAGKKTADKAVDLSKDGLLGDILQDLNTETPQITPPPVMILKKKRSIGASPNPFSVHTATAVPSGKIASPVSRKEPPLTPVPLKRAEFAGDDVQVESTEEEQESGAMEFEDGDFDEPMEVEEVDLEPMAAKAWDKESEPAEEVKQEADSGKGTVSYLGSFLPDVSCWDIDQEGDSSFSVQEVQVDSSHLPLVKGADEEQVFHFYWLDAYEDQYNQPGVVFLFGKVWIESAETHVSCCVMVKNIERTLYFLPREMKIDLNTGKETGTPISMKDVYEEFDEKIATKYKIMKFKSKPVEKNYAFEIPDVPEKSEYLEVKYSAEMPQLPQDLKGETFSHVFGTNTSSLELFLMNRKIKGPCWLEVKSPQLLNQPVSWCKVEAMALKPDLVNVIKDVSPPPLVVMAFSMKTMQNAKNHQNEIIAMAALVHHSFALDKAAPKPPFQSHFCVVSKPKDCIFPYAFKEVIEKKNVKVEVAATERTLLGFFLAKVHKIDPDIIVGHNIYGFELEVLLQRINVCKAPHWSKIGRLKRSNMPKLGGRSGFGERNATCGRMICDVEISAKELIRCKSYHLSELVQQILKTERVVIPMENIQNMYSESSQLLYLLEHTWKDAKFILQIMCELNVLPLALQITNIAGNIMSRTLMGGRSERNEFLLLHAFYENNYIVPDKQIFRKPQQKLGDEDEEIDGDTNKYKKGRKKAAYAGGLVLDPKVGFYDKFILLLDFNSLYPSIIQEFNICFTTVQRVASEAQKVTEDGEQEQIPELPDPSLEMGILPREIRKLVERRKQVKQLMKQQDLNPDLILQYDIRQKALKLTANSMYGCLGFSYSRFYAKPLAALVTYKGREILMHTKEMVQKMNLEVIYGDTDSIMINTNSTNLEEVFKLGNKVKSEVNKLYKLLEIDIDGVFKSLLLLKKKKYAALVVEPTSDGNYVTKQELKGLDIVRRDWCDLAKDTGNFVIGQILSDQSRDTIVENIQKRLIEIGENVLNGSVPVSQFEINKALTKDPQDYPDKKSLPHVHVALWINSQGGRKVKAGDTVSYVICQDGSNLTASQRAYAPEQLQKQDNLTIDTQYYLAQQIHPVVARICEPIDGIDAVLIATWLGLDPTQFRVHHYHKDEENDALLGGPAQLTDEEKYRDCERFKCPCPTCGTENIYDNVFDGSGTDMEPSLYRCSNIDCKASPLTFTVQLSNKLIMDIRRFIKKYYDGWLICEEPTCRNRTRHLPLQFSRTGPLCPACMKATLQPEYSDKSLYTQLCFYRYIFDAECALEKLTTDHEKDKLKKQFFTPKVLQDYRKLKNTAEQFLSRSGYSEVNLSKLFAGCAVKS
T1 sequence (Q14181 whole entry partner): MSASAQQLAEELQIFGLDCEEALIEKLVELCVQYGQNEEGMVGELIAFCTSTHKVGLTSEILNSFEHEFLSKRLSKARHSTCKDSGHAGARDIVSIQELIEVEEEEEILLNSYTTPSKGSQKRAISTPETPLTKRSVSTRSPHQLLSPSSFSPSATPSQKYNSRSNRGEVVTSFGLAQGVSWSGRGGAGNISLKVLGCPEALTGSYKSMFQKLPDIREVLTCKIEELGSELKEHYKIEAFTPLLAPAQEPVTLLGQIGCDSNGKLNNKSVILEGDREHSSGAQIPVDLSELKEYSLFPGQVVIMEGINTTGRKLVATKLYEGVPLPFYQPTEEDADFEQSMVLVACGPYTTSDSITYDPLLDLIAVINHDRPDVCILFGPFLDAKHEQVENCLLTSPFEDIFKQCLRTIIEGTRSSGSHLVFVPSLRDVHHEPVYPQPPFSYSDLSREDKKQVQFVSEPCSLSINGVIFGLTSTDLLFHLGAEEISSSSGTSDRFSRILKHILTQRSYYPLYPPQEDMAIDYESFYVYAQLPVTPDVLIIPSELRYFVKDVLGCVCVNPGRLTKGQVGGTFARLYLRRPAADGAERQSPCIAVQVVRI
T1 sequence (P49642 whole entry partner): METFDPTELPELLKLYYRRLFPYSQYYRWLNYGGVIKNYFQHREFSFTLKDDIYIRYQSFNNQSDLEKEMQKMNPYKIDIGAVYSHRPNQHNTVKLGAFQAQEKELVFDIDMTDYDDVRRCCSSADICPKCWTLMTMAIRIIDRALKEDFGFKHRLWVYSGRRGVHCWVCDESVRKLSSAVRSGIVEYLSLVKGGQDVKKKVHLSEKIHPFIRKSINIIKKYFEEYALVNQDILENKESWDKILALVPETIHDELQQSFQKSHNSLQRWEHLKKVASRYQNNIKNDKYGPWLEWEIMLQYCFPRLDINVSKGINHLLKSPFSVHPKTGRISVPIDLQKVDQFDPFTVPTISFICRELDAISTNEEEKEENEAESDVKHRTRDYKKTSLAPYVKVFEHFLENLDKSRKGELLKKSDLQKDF
T1 sequence (P49643 whole entry partner): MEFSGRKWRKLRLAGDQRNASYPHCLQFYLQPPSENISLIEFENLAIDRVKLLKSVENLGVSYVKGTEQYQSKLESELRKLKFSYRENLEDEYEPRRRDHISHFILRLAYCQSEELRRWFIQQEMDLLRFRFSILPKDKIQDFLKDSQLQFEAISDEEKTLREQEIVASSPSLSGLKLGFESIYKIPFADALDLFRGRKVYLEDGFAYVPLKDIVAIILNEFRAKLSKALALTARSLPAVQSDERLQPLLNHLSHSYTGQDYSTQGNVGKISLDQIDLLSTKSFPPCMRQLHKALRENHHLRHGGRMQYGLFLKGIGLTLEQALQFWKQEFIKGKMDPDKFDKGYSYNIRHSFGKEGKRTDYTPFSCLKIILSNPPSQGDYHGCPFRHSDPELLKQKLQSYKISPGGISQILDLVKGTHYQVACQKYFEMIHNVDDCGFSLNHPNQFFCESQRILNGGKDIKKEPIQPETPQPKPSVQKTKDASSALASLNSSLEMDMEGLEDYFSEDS
Text: Activated fish sperm DNA was purchased from USB/Affymetrix (Santa Clara, CA) and used as a template for the DNA polymerases alpha, beta, and gamma. […] The RNA and DNA oligonucleotides used in the mitochondrial RNA polymerase assay (see Table S1 in the supplemental material) were synthesized and PAGE purified by Thermo Scientific/Dharmacon (Lafayette, CO). RNA primer R12 was 5′-^32P-phosphorylated with [γ-^32P]ATP (3,000 Ci/mmol) and T4 kinase (New England BioLabs, Ipswich, MA).
(§1) Human DNA polymerase alpha, isolated from HeLa cell extracts, was from CHIMERx (Madison, WI). Recombinant human DNA polymerase beta, expressed in E. coli, was a gift from Zucai Suo at The Ohio State University. Recombinant human DNA polymerase gamma (including both the large subunit and the small subunit) was cloned, expressed, and purified from insect cells by Gilead Sciences (Foster City, CA) ([13]). RNA PolII was purchased as part of the HeLaScribe nuclear extract in vitro transcription system kit from Promega (Madison, WI). The recombinant human PolRMT and the transcription factors mitochondrial transcription factor A (mtTFA) and B2 (mtTFB2) were purchased from Enzymax (Lexington, KY). FLAG epitope-tagged RNA PolI and PolIII complexes were isolated from rat NSN1 cells and HeLa cells, respectively ([17], [18]). The inhibition of DNA polymerases alpha, beta, and gamma, PolRMT, and PolII and the rate of single-nucleotide incorporation by PolRMT have been described previously in detail ([12], [13], [19]). Inhibition of RNA PolI and PolIII was studied using published methods ([20], [21]). All concentrations were final unless noted otherwise. […] After incubation at 30°C for 20 min to 1 h, the reactions were terminated by pipetting the mixtures onto DEAE-cellulose discs (DE81; Whatman), and the products analyzed as described previously ([20], [21]).

[2] = target: T2, RNA PolII (Homo sapiens, UniProt P24928+P30876); experiment: Inhibition of RNA PolII (HeLaScribe nuclear extract transcription); type: biochemical; settings: read-out: Mean IC50 ± SD for RNA PolII
T2 construct: purchased as part of the HeLaScribe nuclear extract in vitro transcription system kit; purchased Promega (Madison, WI); host or cells: HeLa nuclear extract (endogenous enzyme)
Text: Activated fish sperm DNA was purchased from USB/Affymetrix (Santa Clara, CA) and used as a template for the DNA polymerases alpha, beta, and gamma. The DNA template used in the RNA Pol II assay was a 1,188-bp restriction fragment containing the cytomegalovirus (CMV) immediate early promoter (Promega, Madison, WI). The RNA and DNA oligonucleotides used in the mitochondrial RNA polymerase assay (see Table S1 in the supplemental material) were synthesized and PAGE purified by Thermo Scientific/Dharmacon (Lafayette, CO). RNA primer R12 was 5′-^32P-phosphorylated with [γ-^32P]ATP (3,000 Ci/mmol) and T4 kinase (New England BioLabs, Ipswich, MA).
as §1, with “otherwise. For the RNA PolI inhibition assay, a reaction mixture containing 50 mM HEPES (pH 7.9), 20% glycerol, 100 mM KCl, 1 mM dithiothreitol (DTT), 50 μg/ml calf thymus DNA, 4 mM MgCl2, 5 or 80 μM UTP (0.25 μl of [5,6-^3H]UTP, >25 Ci/mmol; PerkinElmer), 1 mM noncompeting NTP, competing NTP (5 μM for GTP, CTP, and UTP and 25 μM for ATP), and various concentrations (0 to 500 μM) of NTP analogs was preincubated at 30°C for 5 min.” for “otherwise.”

[3] = triphosphate form of the compound tested (Table 4)

SMILES: [N-]=[N+]=N[C@]1(CO)O[C@@H](n2ccc(N)nc2=O)[C@H](O)[C@@H]1O [4′-AzidoC, 4′-azido cytidine]
IC50 [1]: > 200 µM
IC50 [2, 3]: > 200 µM

SMILES: CC(C)OC(=O)[C@H](C)N[P@](=O)(OC[C@H]1O[C@@](C#N)(c2ccc3c(N)ncnn23)[C@](C)(O)[C@@H]1OC(=O)C(C)C)Oc1ccccc1 [GS-6620]
IC50 [1]: > 200 µM
IC50 [2, 3]: > 200 µM

SMILES: CCOc1nc(N)nc2c1ncn2[C@@H]1O[C@@H]2COP(=O)(OC(C)C)O[C@H]2[C@@]1(C)F (stereo partly drawn) [PSI-938]
IC50 [1]: > 200 µM
IC50 [2, 3]: > 200 µM

SMILES: C[C@@]1(F)[C@H](O)[C@@H](CO)O[C@H]1n1ccc(N)nc1=O [PSI-6130]
IC50 [1]: > 200 µM
IC50 [2, 3]: > 200 µM

SMILES: CC(C)OC(=O)[C@H](C)N[P@](=O)(OC[C@H]1O[C@@H](n2ccc(=O)[nH]c2=O)[C@](C)(F)[C@@H]1O)Oc1ccccc1 [Sofosbuvir]
IC50 [1]: > 200 µM
IC50 [2, 3]: > 200 µM

More lines, now with the values ahead:

IC50 [1]: > 200 µM
IC50 [2, 3]: > 200 µM
SMILES: C[C@@]1(O)[C@H](O)[C@@H](CO)O[C@H]1n1ccc(N)nc1=O [2′CMeC, 2′-C-methyl (2′CMe) cytidine]

IC50 [1]: > 200 µM
IC50 ([2]; nucleotide analogs (Table 6)): > 500 µM
IC50 [2, 3]: > 200 µM
SMILES: C[C@@]1(O)[C@H](O)[C@@H](COP(=O)(O)OP(=O)(O)OP(=O)(O)O)O[C@H]1n1cnc2c(=O)[nH]c(N)nc21 [2′CMeGTP]
